From US10792283B2, “Quinoline analogs as phosphatidylinositol 3-kinase inhibitors” (HANGZHOU ZHENGXIANG PHARMACEUTICALS CO., LTD., priority 2016, dated 2020)
Like-named read-outs stand apart in the source and are kept apart here. One block for each compound: values may come before it.

What was measured:
JVM-2 = test: Cytotoxicity assay (CTG, 72 h) in JVM-2; assay type: cell-based
Method: (§1) Cytotoxicity assay of compound 2 of Table 1 in selected cell lines
(§2) Day 0: cell seeding for all cell lines with the density of 10000 cells/80 μL/well.
(§3) Day 1, drug treatment: Prepare 3-fold serial dilutions of compound stock solutions with growth medium. Dispense 20 μL (5×) drμg solution in each well (duplicates for each concentration), the final DMSO concentration of each well treated with test compound and corresponding vehicle control is 0.1%. Incubate the plate for 72 h in specified incubator.
(§4) Day 4, plate reading: Thaw CTG solution and equilibrate to room temperature, add 100 μL of CTG per well, mix the contents for 2 min on the plate shaker, incubate for 10 min before recording the luminescence signal using Envision.

SU-DHL-5 = test: Cytotoxicity assay (CTG, 72 h) in SU-DHL-5; assay type: cell-based
Method: as §1, §2, §3, §4

SU-DHL-6 = test: Cytotoxicity assay (CTG, 72 h) in SU-DHL-6; assay type: cell-based
Method: as §1, §2, §3, §4

SU-DHL-4 = test: Cytotoxicity assay (CTG, 72 h) in SU-DHL-4; assay type: cell-based
Method: as §1, §2, §3, §4

EHEB = test: Cytotoxicity assay (CTG, 72 h) in EHEB; assay type: cell-based; settings: cell viability
Method: as §1, §2, §3, §4

[1] = Hepatocyte stability (parent drug disappearance in cryopreserved hepatocytes); assay type: in vitro ADME, human; settings: for half-life at 1 μM: human, cryopreserved hepatocytes
Method: The hepatocyte assay was used to evaluate the metabolic stability of test articles (TA) following incubation in cryopreserved hepatocytes by monitoring parent drug disappearance via […]. The TA with 1% final DMSO concentration was incubated with 0.5 million hepatocytes/ml at 1 μM substrate in duplicate. The incubation was carried out at 37° C. with 5% CO2 and saturating humidity. Samples were taken at 0, 1, 2, and 3 hours to monitor the disappearance of TA and a half-life (t ½) was determined. Table 2 below summarizes the t½ values (e.g. t ½) collected from this Example.

PI3Kδ = PI3Kδ (Homo sapiens (Human), UniProt O00329); test: Enzymatic activity of PI3K isoforms, TR-FRET assay; assay type: biochemical; settings: 10 μM ATP
Chain of PI3Kδ (O00329 whole entry, canonical isoform): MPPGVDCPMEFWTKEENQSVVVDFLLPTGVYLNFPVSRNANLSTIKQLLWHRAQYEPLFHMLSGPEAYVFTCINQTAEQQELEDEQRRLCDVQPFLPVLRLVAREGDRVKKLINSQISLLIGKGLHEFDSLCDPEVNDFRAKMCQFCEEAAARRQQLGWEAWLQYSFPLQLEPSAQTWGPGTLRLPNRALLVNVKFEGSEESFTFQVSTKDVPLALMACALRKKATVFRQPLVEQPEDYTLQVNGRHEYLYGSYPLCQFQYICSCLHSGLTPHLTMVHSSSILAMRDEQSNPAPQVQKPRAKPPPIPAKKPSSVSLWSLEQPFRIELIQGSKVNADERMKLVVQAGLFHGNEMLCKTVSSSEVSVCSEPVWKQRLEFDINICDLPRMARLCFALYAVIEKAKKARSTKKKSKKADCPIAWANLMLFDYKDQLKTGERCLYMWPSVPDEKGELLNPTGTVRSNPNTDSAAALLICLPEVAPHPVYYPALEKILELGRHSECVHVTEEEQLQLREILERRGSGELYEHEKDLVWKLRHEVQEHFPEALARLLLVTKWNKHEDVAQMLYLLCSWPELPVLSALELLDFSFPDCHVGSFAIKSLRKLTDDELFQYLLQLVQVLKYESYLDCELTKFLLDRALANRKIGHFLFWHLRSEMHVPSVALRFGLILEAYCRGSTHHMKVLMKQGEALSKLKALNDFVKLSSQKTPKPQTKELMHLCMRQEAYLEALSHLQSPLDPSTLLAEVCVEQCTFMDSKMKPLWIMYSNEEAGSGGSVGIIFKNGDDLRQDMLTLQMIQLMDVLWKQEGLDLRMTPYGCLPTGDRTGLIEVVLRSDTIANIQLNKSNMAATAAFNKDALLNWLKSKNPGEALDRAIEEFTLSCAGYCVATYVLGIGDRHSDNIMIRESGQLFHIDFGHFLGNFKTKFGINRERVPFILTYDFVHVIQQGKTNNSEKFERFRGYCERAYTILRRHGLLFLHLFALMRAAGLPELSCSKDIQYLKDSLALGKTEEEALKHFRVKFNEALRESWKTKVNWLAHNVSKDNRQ
Chain of PI3Kδ (P27986 whole entry partner, canonical isoform): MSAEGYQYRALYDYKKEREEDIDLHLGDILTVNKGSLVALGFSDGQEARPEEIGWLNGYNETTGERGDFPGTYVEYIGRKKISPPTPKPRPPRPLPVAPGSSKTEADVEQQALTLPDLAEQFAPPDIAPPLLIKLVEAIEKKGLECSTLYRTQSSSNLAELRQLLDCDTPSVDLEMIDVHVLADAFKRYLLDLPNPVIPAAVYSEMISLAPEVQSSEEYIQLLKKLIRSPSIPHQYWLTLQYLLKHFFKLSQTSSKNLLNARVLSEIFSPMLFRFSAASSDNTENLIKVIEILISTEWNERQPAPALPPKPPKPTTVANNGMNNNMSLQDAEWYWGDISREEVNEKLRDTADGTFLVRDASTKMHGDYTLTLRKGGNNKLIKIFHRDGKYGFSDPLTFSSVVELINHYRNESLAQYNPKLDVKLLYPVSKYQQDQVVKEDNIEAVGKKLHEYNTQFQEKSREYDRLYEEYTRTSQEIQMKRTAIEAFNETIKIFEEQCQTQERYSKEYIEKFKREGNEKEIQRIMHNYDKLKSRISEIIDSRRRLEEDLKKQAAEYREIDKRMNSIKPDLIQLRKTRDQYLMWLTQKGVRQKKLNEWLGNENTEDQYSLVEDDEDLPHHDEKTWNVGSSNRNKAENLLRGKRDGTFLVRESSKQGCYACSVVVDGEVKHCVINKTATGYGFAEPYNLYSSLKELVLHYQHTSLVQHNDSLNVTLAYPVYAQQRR
Method: Enzymatic activity of the class I PI3K isoforms in the presence of the compounds of Table 1 above was measured using a time-resolved fluorescence resonance energy transfer (TR-FRET) assay.
The TR-FRET assay can monitor formation of the product 3,4,5-inositol triphosphate molecule (PIP3) as it competed with fluorescently labeled PIP3 for binding to the GRP-1 pleckstrin homology domain protein. An increase in […] product results in a decrease in TR-FRET signal as the labeled fluorophore is displaced from the GRP-1 protein binding site.
Control compound, PI-103, was tested in 10-dose IC50 with 3-fold serial dilution starting at 10 μm.
Data are normalized based on negative (DMSO) control. The alpha, beta, delta, and gamma IC50 values were calculated from the fit of the dose-response curves to a four parameter equation. IC50 are reported in units of nM.
IC50 values were obtained for all PI3K isoforms (α, β, δ, and γ), and Table 2 summarizes the IC50 data collected for PI3Kδ in this Example.

[2] = PK profile after iv and PO dosing in rats; assay type: in vivo, SD rats
Method: Compound 2 was dosed by both iv and PO in the rats.

[3] = cited from earlier work
[4] = cited from earlier work; remark: listed apart in the source
[5] = 1 μM substrate, 0.5 million hepatocytes/ml, 37° C., read-out: hepatocyte T1/2 (converted)
[6] = Homo sapiens, JVM-2, cell viability
[7] = human hepatocytes, Table 3 comparison, read-out: T ½
[8] = Homo sapiens, SU-DHL-5, cell viability
[9] = Homo sapiens, SU-DHL-6, cell viability
[10] = Homo sapiens, SU-DHL-4, cell viability
[11] = Sprague-Dawley, rat, in vivo, 1.32 mg/kg, iv, rats
[12] = Sprague-Dawley, rat, in vivo, po, 10 mg/kg, SD rats
[13] = IV, data from idelalisib NDA filing
[14] = oral, data from idelalisib NDA filing

Compound: N.N.[Cl][Pt][Cl] [Cisplatin]
IC50 (JVM-2; cell viability): 0.749 µM
IC50 (SU-DHL-5; cell viability): 0.28 µM
IC50 (SU-DHL-6; cell viability): 5.61 µM
IC50 (SU-DHL-4; cell viability): 0.507 µM
IC50 (EHEB): 2.59 µM

Compound: C[C@H](Nc1nc(N)nc(N)c1C#N)c1cc2ccc(F)cc2nc1-c1ccccc1 [Compound 1, (S)-2,4-diamino-6-[1-(7-fluoro-2-phenyl-quinolin-3-yl)-ethylamino]-pyrimidine-5-carbonitrile]
half-life at 1 μM [1, 5]: 27 h
improved stability in human hepatocytes (longer half-life), fold ([1]; versus compound D): 2.7 ×
IC50 (PI3Kδ): 0.043 nM

Compound: C[C@H](Nc1nc(N)nc(N)c1C#N)c1cc2ccc(F)cc2nc1-c1ccccn1 [Compound 2, (S)-2,4-Diamino-6-[1-(7-fluoro-2-pyridin-2-yl-quinolin-3-yl)-ethylamino]-pyrimidine-5-carbonitrile]
IC50 (JVM-2; [6]): 0.931 µM
half-life at 1 μM [1, 5]: 53 h
half-life at 1 μM [1, 7]: > 48 h
IC50 (SU-DHL-5; [8]): 0.493 µM
IC50 (SU-DHL-6; [9]): 0.035 µM
IC50 (PI3Kδ): 0.086 nM
IC50 (SU-DHL-4; [10]): 0.088 µM
IC50 (EHEB): 0.216 µM
AUC(0-inf) [2, 11]: 4550 ng·h/mL
Cmax [2, 11]: 1090 ng/mL
Tmax [2, 11]: 0.08 h
clearance [2, 11]: 4.6 mL/min/kg
half-life [2, 11]: 3.55 h
Vd ([2]; Sprague-Dawley, rat, in vivo, 1.32 mg/kg, iv, rats, read-out: VSS): 1.12 L/kg
AUC(0-inf) [2, 12]: 29500 ng·h/mL
Cmax [2, 12]: 3170 ng/mL
Tmax [2, 12]: 2 h
bioavailability [2, 12]: 80%
half-life [2, 12]: 3.12 h
AUCinf/Dose ([2]; iv, rats): 3448
Cmax/Dose ([2]; iv, rats): 828
Oral exposure corrected with dose (AUCinf/dose), fold higher than that of idelalisib ([2]; oral dose 10 mg/kg, SD rats, versus idelalisib): 20 fold
AUCinf/Dose ([2]; po, 10 mg/kg, SD rats): 2949
Cl ([2]; po, 10 mg/kg, SD rats): 4.6 mL/min/kg
Cmax/Dose ([2]; po, 10 mg/kg, SD rats): 317

Compound: C[C@H](Nc1nc(N)nc(N)c1C#N)c1cc2ccc(F)cc2nc1-c1cc(F)cc(F)c1 [Compound 3, (S)-2,4-Diamino-6-{1-[2-(3,5-difluoro-phenyl)-7-fluoro-quinolin-3-yl]-ethylamino}-pyrimidine-5-carbonitrile]
half-life at 1 μM [1, 5]: 17 h
IC50 (PI3Kδ): 0.24 nM

Compound: C[C@H](Nc1nc(N)nc(N)c1C#N)c1cc2ccc(F)cc2nc1-c1ccccc1S(C)(=O)=O [Compound 4, (S)-2,4-Diamino-6-{1-[7-fluoro-2-(2-methanesulfonyl-phenyl)-quinolin-3-yl]-ethylamino}-pyrimidine-5-carbonitrile]
half-life at 1 μM [1, 5]: 6 h
improved stability in human hepatocytes (longer half-life), fold ([1]; versus compound E): 1.3 ×
IC50 (PI3Kδ): 0.27 nM

Compound: C[C@H](Nc1nc(N)nc(N)c1C#N)c1cc2ccc(F)cc2nc1-c1cccc(F)c1 [Compound 5, (S)-2,4-diamino-6-{1-[7-fluoro-2-(3-fluoro-phenyl)-quinolin-3-yl]-ethylamino}-pyrimidine-5-carbonitrile]
half-life at 1 μM [1, 5]: 20 h
half-life at 1 μM [1, 7]: > 12 h
IC50 (PI3Kδ): 0.14 nM

Compound: C[C@H](Nc1nc(N)nc(N)c1C#N)c1cc2cccc(F)c2nc1-c1ccccn1 [Compound 6, (S)-2,4-Diamino-6-[1-(8-fluoro-2-pyridin-2-yl-quinolin-3-yl)-ethylamino]-pyrimidine-5-carbonitrile]
half-life at 1 μM [1, 5]: 9 h

Compound: CC[C@H](Nc1ncnc2[nH]cnc12)c1nc2cccc(F)c2c(=O)n1-c1ccccc1 [Idelalisib, idelalisib]
IC50 (JVM-2; [6]): 1.43 µM
IC50 (SU-DHL-5; [8]): 1.68 µM
IC50 (SU-DHL-6; [9]): 0.13 µM
IC50 (SU-DHL-4; [10]): 0.198 µM
Fatal and/or serious hepatotoxicity, % of patients ([3]; combination trials): 11%
Fatal and/or serious hepatotoxicity, % of patients ([3]; monotherapy): 18%
IC50 (EHEB): 0.506 µM
AUCinf [4, 13]: 1151 ± 407 ng·h/mL
Cl [4, 13]: 478 ± 19 mL/min/kg
Cmax [4, 13]: 1437 ± 220 ng/mL
Tmax [4, 13]: 0.08 h
VSS [4, 13]: 2.49 L/kg
AUCinf [4, 14]: 422 ± 67 ng·h/mL
Cmax [4, 14]: 129 ± 49 ng/mL
Tmax [4, 14]: 3.00 h
t1/2 ([4]; rat, in vivo, iv): 1.89 h

Next, values leading:

half-life at 1 μM [1, 5]: 59 h
half-life at 1 μM [1, 7]: > 48 h
IC50 (PI3Kδ): 2.1 nM
Compound: C[C@H](Nc1nc(N)nc(N)c1C#N)c1cc2cccc(F)c2nc1-c1ccccc1S(C)(=O)=O [Compound 7, (S)-2,4-Diamino-6-{1-[8-fluoro-2-(2-methanesulfonyl-phenyl)-quinolin-3-yl]-ethylamino}-pyrimidine-5-carbonitrile]

IC50 (PI3Kδ): 0.97 nM
Compound: C[C@H](Nc1nc(N)nc(N)c1C#N)c1cc2cccc(Cl)c2nc1-c1ccccn1 [Compound 8, (S)-2,4-Diamino-6-[1-(8-chloro-2-pyridin-2-yl-quinolin-3-yl)-ethylamino]-pyrimidine-5-carbonitrile]

half-life at 1 μM [1, 5]: 4.8 h
Compound: C[C@H](Nc1ncnc(N)c1C#N)c1cc2ccc(F)cc2nc1-c1ccccc1S(C)(=O)=O [Compound E, reference compound]

half-life at 1 μM [1, 5]: 10 h
Compound: C[C@H](Nc1ncnc(N)c1C#N)c1cc2ccc(F)cc2nc1-c1ccccc1 [D, reference compound]

half-life at 1 μM [1, 5]: 5.9 h
half-life at 1 μM [1, 7]: < 6 h
Compound: C[C@H](Nc1ncnc(N)c1C#N)c1cc2cccc(F)c2nc1-c1ccccc1S(C)(=O)=O [F, reference compound]

half-life at 1 μM [1, 5]: 1.2 h
half-life at 1 μM [1, 7]: < 1.5 h
Compound: C[C@H](Nc1ncnc(N)c1C#N)c1cc2ccc(F)cc2nc1-c1cccc(F)c1 [G, reference compound]

half-life at 1 μM [1, 5]: 0.88 h
half-life at 1 μM [1, 7]: < 1 h
Compound: C[C@H](Nc1ncnc(N)c1C#N)c1cc2ccc(F)cc2nc1-c1ccccn1 [H, reference compound]
